Measured values from patent US5662604A, “Monitoring method of renal lesions without clinical signs” (Asahi Kasei Kogyo Kabushiki Kaisha, priority 1995, dated 1997).
Where “and” joins values, the source holds several entries; their conditions need not be identical. Equal values may be shown once. Where a name gives a salt, the structure may show the parent alone.

Experiments:
urinary NAG [1] = test: Urinary NAG response to intravenous h-PTH(1-34) in healthy male volunteers (Referential Example); format: in vivo
Method: Method: Fourteen (14) healthy male volunteers were used.
Prior to 60 minutes for intravenous administration of h-PTH(1-34) 100 units, complete excretion of urine was performed. 200 ml of drinking water was given to the individual volunteers and urine was collected immediately before administration of […]. Then, h-PTH(1-34) 100 units were administered intravenously and 200 ml of drinking water was given to the volunteers, and after 60 minutes urine was again collected. Each of urinary NAG and creatinine in 0.5 ml of urine was measured, and an increased ratio of urinary excreted NAG was calculated. NAG value was corrected by creatinine value.
For an assay of NAG, NAG Test Shionogi (Shionogi Pharm. Co., assay method: mcp colorimetry) was used, and for that of creatinine, creatinine-HR (Wako Pure, Chem. Co., assay method: alkali picric acid method) was used. Table 1 illustrates the various parameters, i.e. NAG, AER and serum Cr, in pre- or post-administration of PTH for healthy male volunteers.
NAG value corrected by creatinine (unit: U/g Cr) is calculated by the equation;
Urinary NAG (Unit:U/l).div.urinary creatinine (unit:mg/dl)×100.
The normal range of urinary NAG value after administration of PTH in healthy volunteers is defined according to the results obtained hereinabove as follows. The normal range is calculated by mean ±2 S.D.

urinary NAG [2] = test: Urinary NAG response to intravenous h-PTH(1-34) in patients with diabetes mellitus having AER below 15 μg/min (Example 2); format: in vivo
Method: The predetermined dose of h-PTH(1-34), for example, is administered intravenously in the patients to carry out the monitoring method of the present invention. The patients are diabetes mellitus patients with an AER value below 15 μg/min., showing latent abnormal renal function without detecting manifestation of abnormal renal function. The h-PTH (1-34) is, for example, administered to these patients. Urinary excreted NAG of the patients can be assayed by hydrolysing a substrate NAG, i.e. sodium-cresol-sulfophthaleinyl-N-acetyl-β-D-glucosaminide (MCP-NAG), by NAG, coloring the thus generated m-cresol purple under alkaline condition by adding sodium carbonate and measuring colorimetrically 580 nm. Urinary NAG value is expressed, for example, as U/l (NAG active unit in one liter of urine). Urinary excreted NAG of the patients before administration of PTH and that after administration of PTH are measured, and an increased ratio of urinary excreted NAG value in the post-administration of PTH against the urinary excreted NAG value in the pre-administration of PTH is calculated.
Urine of the pre-administration is collected by excretion after accumulating the urine at a constant time interval, preferably 60 min.±10 min., previously after excreting urine in the pre-administration of PTH. Collecting urine is preferably performed immediately before administration of PTH. Urine of the post-administrationis collected after accumulating the urine under the same condition in the pre-administration, i.e. after a constant time interval of 60 min.±10 min., because of performing excretion (collection) of urine immediately before administration of PTH. For effective accumulation of urine, a suitable amount of drinking water, for example 100-300 ml, may be given to the patients. Urinary NAG value can be measured using a specimen of 0.05-1 ml. Since a suitable volume of water is given to the patients, a correction of the NAG value is needed. Accordingly, a parameter of urine volume and concentration, for example another component such as urinary creatinine concentration (expressed as mg/dl) is measured, and NAG value per creatinine value is obtained. A corrected value of NAG for creatinine (Unit: U/g Cr) is calculated by;
Urinary NAG (U/l ).div.urinary creatinine (mg/dl)×100.
Method: Eighteen (18) patients with diabetes mellitus having AER within normal range (below 15 μg/min.) were used.
Sixty minutes prior to intravenous administration of 100 units of h-PTH(1-34), complete excretion of urine was performed. 200 ml of drinking water were given to the individual volunteers and urine was collected immediately before administration of h-PTH(1-34). Then 100 units of h-PTH(1-34) were administered intravenously and 200 ml of drinking water were given for intake, and after 60 minutes urine was collected. Each of urinary NAG and creatinine in 0.5 ml of urine was measured to calculate the increased ratio of urinary excreted NAG. The NAG value was corrected by creatinine value.
Tables 2 and 3 show the various parameters in pre- and post-administration of PTH for the patients of diabetes mellitus showing the value with the normal range of AER (below 15 μg/min.).

urinary excretion of NAG = settings: intravenous; IHP and PHP patients; Calcif. Tissue Int., 45(6):375 (1989); cited from earlier work
[3] = test system: membrane component of rat renal cortex; test: Biological activity (cAMP generation, radioimmunoassay) by parallel test against bovine-PTH (1-84) standard; format: biochemical
Source text: Biological activity of teriparatide acetate unit can be determined by a parallel test wherein reacting a membrane component of rat renal cortex with teriparatide acetate and assaying generated cAMP by radioimmunoassay. The specific activity of teriparatide acetate is 3,300 units/mg by a parallel test using the standard substance of bovine-PTH (1-84).

[4] = mean of 14 healthy male volunteers, 100 units i.v., 60 min
[5] = mean of 18 diabetic patients, 100 units i.v., 60 min
[6] = of 18 diabetic patients, 100 units i.v.

h-PTH(1-34): h-PTH(1-34) having molecular weight about 4,400 with 34 imino acids sequence
Urinary excretion of NAG (in words) (urinary NAG [1]; administration of human-PTH (1-34) in healthy volunteers): increased urinary excretion of NAG
Normal range of increased ratio of urinary NAG in post-administration to pre-administration (urinary NAG [1]; healthy volunteers, mean ±2 S.D.): 2.4-4.7
Urinary NAG post- (urinary NAG [1]; individual healthy male volunteers, 100 units h-PTH(1-34) i.v., urine 60 min after): 5.9 U/gCr and 8.6 U/gCr and 10.7 U/gCr and 5.7 U/gCr and 7.3 U/gCr and 11.0 U/gCr and 14.7 U/gCr and 17.0 U/gCr and 10.0 U/gCr and 19.3 U/gCr and 6.4 U/gCr and 8.3 U/gCr and 9.8 U/gCr
Urinary NAG changes (urinary NAG [1]; individual healthy male volunteers, post minus pre, 100 units h-PTH(1-34) i.v., 60 min): 4.3 U/gcr and 6.4 U/gcr and 7.4 U/gcr and 4.4 U/gcr and 4.9 U/gcr and 8.1 U/gcr and 9.7 U/gcr and 11.5 U/gcr and 7.3 U/gcr and 15.0 U/gcr and 5.8 U/gcr and 6.3 U/gcr and 6.2 U/gcr
Urinary NAG changes in ratio (urinary NAG [1]; individual healthy male volunteers, post/pre, 100 units h-PTH(1-34) i.v., 60 min): 3.8 and 3.9 and 3.3 and 4.4 and 3.1 and 3.7 and 2.9 and 3.6 and 4.1 and 3.4 and 2.8 and 2.6
Urinary NAG changes in ratio (increased ratio post-/pre-administration), mean (urinary NAG [1]; [4]): 3.5 and 3.5±0.6
Urinary NAG changes, mean (urinary NAG [1]; [4]): 7.3 U/gcr
Urinary NAG post-, mean (urinary NAG [1]; [4]): 10.3 U/gCr and 10.3±4.1 U/gCr
Urinary NAG post- (urinary NAG [2]; individual diabetic patients, AER below 15 μg/min, 100 units h-PTH(1-34) i.v., urine 60 min after): 7.3 U/gCr and 7.8 U/gCr and 15.6 U/gCr and 7.5 U/gCr and 11.0 U/gCr and 12.2 U/gCr and 6.8 U/gCr and 17.5 U/gCr and 10.1 U/gCr and 15.3 U/gCr and 4.5 U/gCr and 23.9 U/gCr and 13.4 U/gCr and 15.9 U/gCr and 9.7 U/gCr and 6.7 U/gCr and 16.7 U/gCr
Urinary NAG changes (urinary NAG [2]; individual diabetic patients, post minus pre, 100 units h-PTH(1-34) i.v., 60 min): 3.4 U/gcr and 3.9 U/gcr and 7.9 U/gcr and 3.7 U/gcr and 7.1 U/gcr and 4.9 U/gcr and 7.5 U/gcr and 5.8 U/gcr and 11.7 U/gcr and 2.2 U/gcr and 12.7 U/gcr and 8.1 U/gcr and 9.3 U/gcr and 5.1 U/gcr
Urinary NAG changes in ratio (urinary NAG [2]; individual diabetic patients, post/pre, 100 units h-PTH(1-34) i.v., 60 min): 1.9 and 2.0 and 2.8 and 1.7 and 2.2 and 1.8 and 2.4 and 4.3 and 1.6 and 2.1 and 2.5 and 2.3 and 3.4
Urinary NAG changes in ratio, mean (urinary NAG [2]; [5]): 2.3
Urinary NAG changes, mean (urinary NAG [2]; [5]): 6.5 U/gcr
Urinary NAG post-, mean (urinary NAG [2]; [5]): 11.8 U/gCr
Number of patients with normal increased ratio of urinary excreted NAG (2.4-4.7) (urinary NAG [2]; [6]): 6 subjects
Number of patients with significantly decreased increased ratio of urinary NAG (2.3), diagnosed as renal lesion without clinical symptoms of nephropathy (urinary NAG [2]; [6]): 12 cases
Urinary excretion of NAG (in words) (urinary excretion of NAG): increased urinary excretion of NAG in only IHP

teriparatide acetate
Specific activity ([3]; parallel test using standard substance of bovine-PTH (1-84)): 3,300 units/mg

CC[C@H](C)[C@H](NC(=O)[C@H](CCC(=O)O)NC(=O)[C@H](CO)NC(=O)[C@@H](NC(=O)[C@@H](N)CO)C(C)C)C(=O)N[C@@H](CCC(N)=O)C(=O)N[C@@H](CC(C)C)C(=O)N[C@@H](CCSC)C(=O)N[C@@H](Cc1cnc[nH]1)C(=O)N[C@@H](CC(N)=O)C(=O)N[C@@H](CC(C)C)C(=O)NCC(=O)N[C@@H](CCCCN)C(=O)N[C@@H](Cc1cnc[nH]1)C(=O)N[C@@H](CC(C)C)C(=O)N[C@@H](CC(N)=O)C(=O)N[C@@H](CO)C(=O)N[C@@H](CCSC)C(=O)N[C@@H](CCC(=O)O)C(=O)N[C@@H](CCCN=C(N)N)C(=O)N[C@H](C(=O)N[C@@H](CCC(=O)O)C(=O)N[C@@H](Cc1c[nH]c2ccccc12)C(=O)N[C@@H](CC(C)C)C(=O)N[C@@H](CCCN=C(N)N)C(=O)N[C@@H](CCCCN)C(=O)N[C@@H](CCCCN)C(=O)N[C@@H](CC(C)C)C(=O)N[C@@H](CCC(N)=O)C(=O)N[C@@H](CC(=O)O)C(=O)N[C@H](C(=O)N[C@@H](Cc1cnc[nH]1)C(=O)N[C@@H](CC(N)=O)C(=O)N[C@@H](Cc1ccccc1)C(=O)O)C(C)C)C(C)C [Teriparatide hydrochloride]
Specific activity of the bulk used for the injection ([3]; Example 1, Teriparatide hydrochloride): 3,333 teriparatide acetate units/mg
